The structures appear in SMILES notation. Numbering of substitutions follows the chain as printed.

For one test, the target named is CK1ε (Homo sapiens, UniProt P49674). Briefly: in vitro kinase assay, CK1ε. It counts as biochemical. To be noted: 10 µM inhibitor, initial screening.
For a further test, the target named is T1, CK1δ R127Q (Homo sapiens, UniProt P48730, R127Q).
T1 sequence (P48730 1-415 R127Q): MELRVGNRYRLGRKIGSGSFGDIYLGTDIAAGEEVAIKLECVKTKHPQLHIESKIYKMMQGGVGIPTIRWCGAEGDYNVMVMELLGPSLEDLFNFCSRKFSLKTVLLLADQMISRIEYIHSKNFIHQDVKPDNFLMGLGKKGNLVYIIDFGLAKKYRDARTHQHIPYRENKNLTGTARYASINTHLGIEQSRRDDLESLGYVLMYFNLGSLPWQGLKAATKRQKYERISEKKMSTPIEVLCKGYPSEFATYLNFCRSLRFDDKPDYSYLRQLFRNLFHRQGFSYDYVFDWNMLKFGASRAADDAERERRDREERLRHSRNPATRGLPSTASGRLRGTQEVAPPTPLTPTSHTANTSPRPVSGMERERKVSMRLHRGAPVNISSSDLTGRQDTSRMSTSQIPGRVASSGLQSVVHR
Briefly: in vitro kinase assay, CK1δ mutant R127Q. Format: biochemical. To be noted: 10 µM inhibitor, Figure 5b. Here is the method: (§1) Overexpression and purification of GST-CK1δ fusion proteins, either wild type or mutant, were performed as described previously.
(§2) Each kinase assay reaction was performed in kinase buffer (25 mM Tris-HCl (pH 7.5), 10 μM ATP, 10 mM MgCl2, 100 μM EDTA) in presence of purified GST-CK1δ kinase as source of enzyme (either wild type or mutant), an assay-specific substrate (α-casein, GST-p53^1−64, or GST-β-catenin^1−181), and radiolabeled ATP (2 μCi [γ-^32P]-ATP). For performing Michaelis–Menten analysis increasing substrate concentrations were used (α-casein: 0.39−25 μM; GST-p53^1−64: 0.09−1.87 μM; GST-β-catenin^1−181: 0.07−1.32 μM). For biological evaluation of small molecule inhibitors (SMIs), each inhibitor compound was either tested at 10 μM concentration for initial screening or by using a dilution series (0.005−10 µM) for determination of IC50 values. DMSO was used as control. Reactions were incubated for 30 min at 30 °C and reactions were stopped using 5x SDS-loading buffer (250 mM Tris-HCl [pH 6.8], 25% (v/v) β-mercaptoethanol (MSH), 50% (v/v) glycerol, 10% (w/v) SDS, 0.5% (w/v) bromphenol blue). Subsequently, samples were separated by SDS-PAGE using 12.5% acrylamide gels, stained with Coomassie, and phosphorylated substrates were visualized on X-ray film. Incorporation of radiolabeled phosphate was quantified by scintillation counting of Coomassie-stained substrate bands. Defined dilutions of the reaction master mix were counted as well in order to convert results obtained as counts per minute (CPM) to units of transferred phosphate in pmol/min. Michaelis–Menten analysis was performed using GraphPad Prism 6 (GraphPad Software, San Diego, CA, USA).

The next test has as its system parental HeLa cells. Briefly: MTT viability assay, parental HeLa cells. Format: cell-based. To be noted: 25 μM, 48 h. Here is the method:
Parental HeLa cells, as well as HeLa CSNK1D knock-out cells (CK1δ^−/−) (generated by CRISP/Cas9 technology and provided by EDIGENE, Beijing, China), were cultured in Dulbecco’s Modified Eagle medium (DMEM). HCT-116 and HT-29 colon cancer cells were cultured in McCoy’s 5A medium whereas SW480 and SW620 colon cancer cells were cultured in Leibovitz’s L-15 medium. All media were supplemented with 10% (v/v) fetal bovine serum (FBS), 100 units/mL penicillin, and 100 µg/mL streptomycin. DMEM-based medium for the culture of HeLa CSNK1D knock-out cells was additionally supplemented with 1 μg/mL puromycin. Cell cultures were maintained at 37 °C in a humidified atmosphere containing 5% CO2. Cells were transfected using Effectene transfection reagent (Qiagen, Hilden, Germany) according to the manufacturer’s instructions. […]
For performing MTT viability assays, cells were seeded in a 96-well plate (5 × 10^4 cells/well for HeLa cells (parental, CK1δ^−/−, or CK1δ^−/− cells stably transfected with wild type or mutant CK1δ), HCT-116, and HT-29 cells or 7.5 × 10^4 cell/well for SW480 and SW620 cells). […] Absorbance was measured at 570 nm with TriStar^2 LB942 Microplate Reader (Berthold Technologies, Bad Wildbad, Germany) and data analysis was performed using GraphPad Prism 6 (GraphPad Software, San Diego, CA, USA).
A general note: Formazan colour is commonly taken as a measure of viable cells.

The target of another test is CK1γ. Briefly: in vitro kinase assay, CK1γ. It counts as biochemical. To be noted: 10 µM inhibitor, initial screening.
The next test has as its target CK1α (Homo sapiens, UniProt P48729). Briefly: in vitro kinase assay, CK1α. It counts as biochemical. To be noted: 10 µM inhibitor, initial screening.
The next test addresses T2, CK1δ T67S (Homo sapiens, UniProt P48730, T67S).
T2 sequence (P48730 1-415 T67S): T1 sequence (P48730 1-415 R127Q) with T67S, Q127R
Briefly: in vitro kinase assay, CK1δ mutant T67S. It counts as biochemical. To be noted: 10 µM inhibitor, Figure 5a. How it is done: as §1, §2

The next test has as its system HeLa CK1δ−/− cells. The test is described as follows: MTT viability assay, HeLa CK1δ−/− cells. It counts as cell-based. To be noted: 25 μM, 48 h. Here is the method: (§3) Parental HeLa cells, as well as HeLa CSNK1D knock-out cells (CK1δ^−/−) (generated by CRISP/Cas9 technology and provided by EDIGENE, Beijing, China), were cultured in Dulbecco’s Modified Eagle medium (DMEM). HCT-116 and HT-29 colon cancer cells were cultured in McCoy’s 5A medium whereas SW480 and SW620 colon cancer cells were cultured in Leibovitz’s L-15 medium. All media were supplemented with 10% (v/v) fetal bovine serum (FBS), 100 units/mL penicillin, and 100 µg/mL streptomycin. DMEM-based medium for the culture of HeLa CSNK1D knock-out cells was additionally supplemented with 1 μg/mL puromycin. Cell cultures were maintained at 37 °C in a humidified atmosphere containing 5% CO2. Cells were transfected using Effectene transfection reagent (Qiagen, Hilden, Germany) according to the manufacturer’s instructions. For selection of stably transfected clones, transfected cells were grown in selective medium, containing 0.6 mg/mL of G-418 (Calbiochem-Merck Millipore, Darmstadt, Germany).
(§4) For performing MTT viability assays, cells were seeded in a 96-well plate (5 × 10^4 cells/well for HeLa cells (parental, CK1δ^−/−, or CK1δ^−/− cells stably transfected with wild type or mutant CK1δ), HCT-116, and HT-29 cells or 7.5 × 10^4 cell/well for SW480 and SW620 cells). After 24 h, old medium was replaced with fresh medium containing either the small molecule of interest or DMSO as control. After 48 h of treatment, 10 μL MTT (5 mg/mL) was added and incubated at 37 °C for 4 h. The medium was then gently removed and 100 μL of acidic isopropanol was added (90% (v/v) isopropanol, 10% (v/v) 1 N HCl). Cell culture plates were then shaken for 30 min at room temperature. Absorbance was measured at 570 nm with TriStar^2 LB942 Microplate Reader (Berthold Technologies, Bad Wildbad, Germany) and data analysis was performed using GraphPad Prism 6 (GraphPad Software, San Diego, CA, USA).

Test [1] has as its target CK1δ wild type (GST-CK1δ) (Homo sapiens, UniProt P48730). The test is described as follows: in vitro kinase assay, GST-CK1δ wild type. To be noted: for Kinase activity of CK1δ in presence of inhibitor: 10 µM inhibitor, initial screening; for IC50: dilution series 0.005−10 µM, mean ± standard error, triplicate. Format: biochemical. How it is done: as §1, §2
For test [2], the system named is HeLa CK1δ+/+ cells (HeLa CK1δ−/− stably transfected with CK1δ). The test is described as follows: MTT viability assay, HeLa CK1δ+/+ cells. Format: cell-based. To be noted: 25 μM, 48 h. Here is the method:
as §3, §4

The next test relates to HT-29 colon cancer cells. The test is described as follows: MTT viability assay, HT-29. It counts as cell-based. To be noted: 10 µM, 48 h, initial screening (Figure 10a). How it is done:
as §3, §4

The next test has as its system SW480 colon cancer cells. Briefly: MTT viability assay, SW480. Format: cell-based, human. To be noted: 10 µM, 48 h, initial screening (Figure 10a). How it is done: as §3, §4
The test system of another test is SW620 colon cancer cells. The test is described as follows: MTT viability assay, SW620. Format: cell-based, human. To be noted: 48 h. How it is done:
as §3, §4

CK1δ wild type (GST-CK1δ), sequence (P48730 whole entry): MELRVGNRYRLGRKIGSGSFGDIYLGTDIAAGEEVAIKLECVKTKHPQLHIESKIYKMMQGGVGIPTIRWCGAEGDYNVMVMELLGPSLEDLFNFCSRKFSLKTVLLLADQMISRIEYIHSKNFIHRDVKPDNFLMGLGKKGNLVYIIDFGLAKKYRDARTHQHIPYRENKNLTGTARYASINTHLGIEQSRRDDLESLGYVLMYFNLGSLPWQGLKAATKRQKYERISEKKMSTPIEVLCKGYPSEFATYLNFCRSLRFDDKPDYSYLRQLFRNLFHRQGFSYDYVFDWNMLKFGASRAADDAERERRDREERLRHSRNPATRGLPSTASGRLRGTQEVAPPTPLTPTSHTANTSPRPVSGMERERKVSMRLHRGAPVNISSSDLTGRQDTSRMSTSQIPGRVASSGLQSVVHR
CK1ε, sequence (P49674 whole entry): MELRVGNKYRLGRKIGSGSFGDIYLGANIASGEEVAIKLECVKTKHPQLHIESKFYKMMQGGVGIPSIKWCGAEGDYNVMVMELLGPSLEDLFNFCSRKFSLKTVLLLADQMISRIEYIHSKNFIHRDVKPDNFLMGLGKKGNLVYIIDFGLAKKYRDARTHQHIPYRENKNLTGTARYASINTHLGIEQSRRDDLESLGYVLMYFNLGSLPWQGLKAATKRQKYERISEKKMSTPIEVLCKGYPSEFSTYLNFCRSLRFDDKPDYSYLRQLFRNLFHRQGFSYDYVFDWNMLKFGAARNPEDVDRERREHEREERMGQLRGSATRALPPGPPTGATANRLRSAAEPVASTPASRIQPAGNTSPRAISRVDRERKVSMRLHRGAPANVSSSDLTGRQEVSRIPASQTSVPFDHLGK
CK1α, sequence (P48729 whole entry): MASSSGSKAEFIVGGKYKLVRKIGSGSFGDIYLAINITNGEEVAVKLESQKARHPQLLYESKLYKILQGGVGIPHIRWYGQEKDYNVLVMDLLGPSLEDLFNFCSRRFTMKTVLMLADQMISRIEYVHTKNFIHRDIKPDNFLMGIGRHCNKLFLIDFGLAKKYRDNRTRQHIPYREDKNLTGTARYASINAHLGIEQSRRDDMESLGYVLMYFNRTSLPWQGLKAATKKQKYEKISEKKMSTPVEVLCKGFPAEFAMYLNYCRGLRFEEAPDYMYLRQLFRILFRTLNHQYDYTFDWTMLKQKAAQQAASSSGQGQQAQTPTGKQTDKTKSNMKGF

Consider `O=C(CSc1nccc(=O)n1-c1ccccc1)Nc1nc2ccc(C(F)(F)F)cc2s1` [Compound 16, 2-((3-Phenyl-4-oxo-3,4-dihydropyrimidin-2-yl)thio)-N-(6-(trifluoromethyl)benzo-[d]thiazol-2-yl)acetamide], for which the “Kinase activity of CK1ε in presence of inhibitor” value on CK1ε is “strongly inhibited”. Further, at CK1δ R127Q, the “Inhibition of CK1δ R127Q kinase activity compared to wild type CK1δ” value is listed as “significantly stronger inhibited”. Besides, the “Effects on cell viability of parental HeLa cells, compared with compounds 18 and 19” value with parental HeLa cells is recorded as “less pronounced”. Besides, the “Kinase activity of CK1γ in presence of inhibitor” value on CK1γ is reported as “not affected”. Moreover, the “Kinase activity of CK1α in presence of inhibitor” value on CK1α is given as “not affected”. In addition, the “Inhibition of CK1δ T67S compared to wild type CK1δ” value on CK1δ T67S is listed as “slightly stronger”. Also, the “Effects on cell viability of CK1δ−/− cells compared to parental and/or CK1δ+/+ cells” value with HeLa CK1δ−/− cells is listed as “not reduced”. For the same compound, in test [1], the “Kinase activity of CK1δ in presence of inhibitor” value is on record as “strongly inhibited” and the IC50 is 2000 nM.

As to `COc1ccc(OC)c(-n2c(SCC(=O)Nc3nc4ccc(C(F)(F)F)cc4s3)nccc2=O)c1` [Compound 17, 2-((3-(2,5-Dimethoxyphenyl)-4-oxo-3,4-dihydropyrimidin-2-yl)thio)-N-(6-(trifluoromethyl)benzo[d]thiazol-2-yl)acetamide], the “Kinase activity of CK1ε in presence of inhibitor” value at CK1ε is “strongly inhibited”. Further, in the test with parental HeLa cells, the “Effects on cell viability of parental HeLa cells, compared with compounds 18 and 19” value is given as “less pronounced”. Besides, on CK1γ, the “Kinase activity of CK1γ in presence of inhibitor” value was “not affected”. In addition, the “Kinase activity of CK1α in presence of inhibitor” value at CK1α is “not affected”. The “Inhibition of CK1δ T67S compared to wild type CK1δ” value at CK1δ T67S is given as “slightly stronger”. Further, the “Effects on cell viability of CK1δ−/− cells compared to parental and/or CK1δ+/+ cells” value in the test on HeLa CK1δ−/− cells was “not reduced”. Further, the “Kinase activity of CK1δ in presence of inhibitor” value in [1] is reported as “strongly inhibited”.

Consider `COc1cc(OC)cc(-n2c(SCC(=O)Nc3nc4ccc(C(F)(F)F)cc4s3)nccc2=O)c1` [Compound 19, 2-((3-(3,5-Dimethoxyphenyl)-4-oxo-3,4-dihydropyrimidin-2-yl)thio)-N-(6-(trifluoromethyl)benzo[d]thiazol-2-yl)acetamide], for which, at CK1ε, the “Kinase activity of CK1ε in presence of inhibitor” value is reported as “strongly inhibited”. Moreover, the “Kinase activity of CK1γ in presence of inhibitor” value at CK1γ is “not affected”. Moreover, the “Cell viability of CK1δ-expressing cells (HeLa parental or CK1δ+/+) compared to CK1δ-deficient cells (HeLa CK1δ−/−)” value in [2] was “more reduced”. Besides, the “Kinase activity of CK1α in presence of inhibitor” value on CK1α is “not affected”. In test [1], the “Kinase activity of CK1δ in presence of inhibitor” value is listed as “strongly inhibited”.

With `O=C(CSc1nccc(=O)n1Cc1ccc(C(F)(F)F)cc1)Nc1nc2ccc(C(F)(F)F)cc2s1` [Compound 21, 2-((3-(4-Trifluoromethylbenzyl)-4-oxo-3,4-dihydropyrimidin-2-yl)thio)-N-(6-(trifluoromethyl)benzo[d]thiazol-2-yl)acetamide], in the test on HT-29 colon cancer cells, the “Reduction of cell viability, HT-29” value is reported as “minor changes”. Moreover, the “Kinase activity of CK1ε in presence of inhibitor” value at CK1ε is “strongly inhibited”. Besides, in the test with SW480 colon cancer cells, the “Reduction of cell viability, SW480” value is “minor changes”. In addition, the “Kinase activity of CK1γ in presence of inhibitor” value at CK1γ was “not affected”. The “Reduction of cell viability, SW620” value in the test on SW620 colon cancer cells (10 µM, initial screening (Figure 10a)) is around 50%. Moreover, the “Dose-dependent effects on SW620 cell viability” value in the test on SW620 colon cancer cells (0.625 to 20 µM, MTT (Figure S2)) is “only visible at the highest concentrations tested”. In addition, at CK1α, the “Reduction of CK1α activity” value is listed as “at least 50%”. Further, in test [1], the “Kinase activity of CK1δ in presence of inhibitor” value is on record as “strongly inhibited” and the IC50 was determined as 120 nM.

By IC50 is commonly meant the concentration at which inhibition is half-maximal. Higher therefore signals weaker potency in that assay.

(Values after article PMC6941124 (International Journal of Molecular Sciences, 2019).)
